Entries after “also recorded” stand apart in the source; their conditions may differ. Each block holds one compound with its values, some of them ahead of it. Non-standard residues stand in square brackets, D forms with d. Residues, ends and D or L forms follow the SMILES beside them. Tyr(3,5-I2) = N[C@@H](Cc1cc(I)c(O)c(I)c1)C(=O)O; AEEA = NCCOCCOCC(=O)O
Tests used:
[1] = Ex vivo micro-CT contrast enhancement of murine articular cartilage: DIPIC vs PTA vs iopamidol; parameters: species or system mouse; settings: 20 mg iodine/ml (PTA: 1% in 70% ethanol); for Thickness of cartilage assessed with the contrast agent: ex vivo mouse tibiae; for Thickness of cartilage assessed with the contrast agent / Difference in X-ray absorption between cartilage and background: micro-CT absorption profile; for X-ray absorption of background / X-ray absorption of cartilage / Difference in X-ray absorption between cartilage and background: overnight incubation of mouse tibiae (n = 3); for X-ray absorption of background / X-ray absorption of cartilage: mean ± SEM
Experimental: Ex vivo imaging with DIPIC, PTA or iopamidol. Mice were culled through inhalation of CO2 and their knee joints harvested and split under a dissection microscope. Tibiae (n = 3) were finely dissected to remove soft tissue and incubated overnight either in DIT peptide or iopamidol (Santa Cruz Biotechnology, Dallas, Texas, USA) at 20 mg iodine/ml (20 μl) or 1% PTA (Sigma) in 70% ethanol. To determine the contrast achieved in the articular cartilage at equilibrium, proximal tibiae were imaged by micro-CT while incubated in each contrast agent. […] Following imaging, tibiae were washed in saline and imaged in fresh saline until the articular cartilage could no longer be detected.
Generation of colour-coded absorption maps. To calibrate micro-CT scans in Hounsfield units (HU), air and water were scanned and reconstructed. The average grey level intensity within a cylindrical VOI was obtained from image histograms in ImageJ (air = -832.85, water = 152.54). Based on knowledge of the average grey level intensity and the corresponding HU (air = -1000, water = 0), the following linear transformation was derived (equation 2): […]
Using this calibration, the grey level intensity of each pixel was linearly transformed into X-ray absorption (HU) for each micro-CT image dataset using Matlab (R2014b, MathWorks, Natick, Massachusetts, USA). To enhance the difference between X-ray absorption of each tissue, colour-coded maps, also expressed in HU, were generated in Matlab by assigning a look up table (LUT) of 256 colours to each image dataset.

[2] = Solubility of purified DIT peptides at concentrations needed for radiocontrast; settings: purified peptide (≥ 95% by HPLC), 10% DMSO/water, at 20 mg iodine/ml as well as 2 mg iodine/ml (lowest concentration for contrast)
Description: An integrated design, placing DIT into the core of WYRGRL (3) was followed by the addition of a further DIT at the N-terminus (4). […] To improve solubility, both arginine residues in 3 and 4 were replaced with lysine to give 5 and 6, respectively.

[3] = target: T1, murine articular cartilage (type II collagen) (Mus musculus, UniProt P28481); experiment: Fluorescence histology of murine cartilage after intra-articular injection of DOTAM-Cy5.5 probes; format: in vivo; settings: 24 h after intra-articular injection into mouse knee joints; probes of ref 20
T1 construct: Fixed cryosections of murine tibiae (10 µm) 24 h after intra-articular injection of Ac-WYRGRL-DOTAM-Cy5.5 or Ac-YRLGRW-DOTAM-Cy5.5; from tissue; host or cells: articular cartilage of the mouse knee joint (in vivo injection, histology of tibial cryosections)
Experimental: Fluorescence immunohistochemistry for localisation of Ac-WYRGRL-DOTAM-Cy5.5. Fixed cryosections of murine tibiae (10 µm) 24 h after intra-articular injection of Ac-WYRGRL-DOTAM-Cy5.5 or Ac-YRLGRW-DOTAM-Cy5.5 [1] were blocked with 10% goat serum, stained with rat anti-heparan sulfate proteoglycan antibody (A7L6, Abcam), washed three times with PBS-Tween 0.05% (v/v), labelled with Alexa Fluor 488 goat anti-rat IgG (H+L, Abcam) and washed three times with PBS-Tween 0.05% (v/v) before imaging. Cryosections were viewed under a Nikon TE2000-U Ultraview confocal microscope (PerkinElmer, Seer Green, UK) using a 488 nm excitation laser with 525 nm emission filter to visualise the Alexa Fluor 488 label (green false colour), and a 640 nm excitation laser with 700 nm emission filter to visualise the Cy5.5 label (red false colour).

T1 sequence (P28481 182-1241 limits assumed): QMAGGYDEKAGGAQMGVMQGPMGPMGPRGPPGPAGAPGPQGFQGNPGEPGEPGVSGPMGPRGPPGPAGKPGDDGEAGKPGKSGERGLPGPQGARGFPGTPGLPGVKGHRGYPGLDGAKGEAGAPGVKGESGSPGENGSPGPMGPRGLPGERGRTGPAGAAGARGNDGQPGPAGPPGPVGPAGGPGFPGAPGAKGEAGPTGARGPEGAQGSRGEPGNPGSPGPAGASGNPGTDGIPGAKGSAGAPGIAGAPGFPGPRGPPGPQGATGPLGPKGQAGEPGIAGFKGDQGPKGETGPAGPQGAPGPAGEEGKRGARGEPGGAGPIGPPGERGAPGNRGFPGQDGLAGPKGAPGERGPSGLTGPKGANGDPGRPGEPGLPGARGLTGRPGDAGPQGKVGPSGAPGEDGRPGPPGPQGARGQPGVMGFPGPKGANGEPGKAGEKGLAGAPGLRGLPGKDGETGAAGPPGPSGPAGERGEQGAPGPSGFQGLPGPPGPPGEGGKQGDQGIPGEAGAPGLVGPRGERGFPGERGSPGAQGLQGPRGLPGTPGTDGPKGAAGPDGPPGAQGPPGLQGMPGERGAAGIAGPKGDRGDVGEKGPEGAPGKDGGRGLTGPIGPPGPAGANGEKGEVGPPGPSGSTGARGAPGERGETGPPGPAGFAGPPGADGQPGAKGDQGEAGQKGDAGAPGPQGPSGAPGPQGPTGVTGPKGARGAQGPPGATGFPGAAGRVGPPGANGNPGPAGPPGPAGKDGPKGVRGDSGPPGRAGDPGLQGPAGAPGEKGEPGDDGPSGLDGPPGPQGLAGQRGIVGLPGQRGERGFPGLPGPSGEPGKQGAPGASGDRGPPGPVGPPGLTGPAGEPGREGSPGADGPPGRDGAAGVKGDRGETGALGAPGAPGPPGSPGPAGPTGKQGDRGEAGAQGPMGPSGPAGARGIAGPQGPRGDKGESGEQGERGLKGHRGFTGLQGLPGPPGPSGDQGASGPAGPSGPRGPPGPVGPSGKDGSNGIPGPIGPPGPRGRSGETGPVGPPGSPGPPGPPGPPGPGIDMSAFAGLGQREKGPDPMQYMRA

Compound: O=P(O)(O)O.[O]=[W](=[O])=[O].[O]=[W](=[O])=[O].[O]=[W](=[O])=[O].[O]=[W](=[O])=[O].[O]=[W](=[O])=[O].[O]=[W](=[O])=[O].[O]=[W](=[O])=[O].[O]=[W](=[O])=[O].[O]=[W](=[O])=[O].[O]=[W](=[O])=[O].[O]=[W](=[O])=[O].[O]=[W](=[O])=[O] [PTA, phosphotungstic acid]
Thickness of cartilage assessed with the contrast agent [1]: 110 μm
X-ray absorption of background [1]: 342 ± 64 HU
X-ray absorption of cartilage [1]: 3657 ± 253 HU
Difference in X-ray absorption between cartilage and background [1]: 10.7 fold

Solubility of pure peptide [2]: poor solubility
Compound: CC(C)C[C@H](NC(=O)[C@H](CCCNC(=N)N)NC(=O)CNC(=O)[C@H](CCCNC(=N)N)NC(=O)[C@H](Cc1cc(I)c(O)c(I)c1)NC(=O)[C@@H](N)Cc1c[nH]c2ccccc12)C(=O)O [compound 3] (H-W[Tyr(3,5-I2)]RGRL-OH)

Solubility of pure peptide [2]: poor solubility
Compound: CC(C)C[C@H](NC(=O)[C@H](CCCNC(=N)N)NC(=O)CNC(=O)[C@H](CCCNC(=N)N)NC(=O)[C@H](Cc1cc(I)c(O)c(I)c1)NC(=O)[C@H](Cc1c[nH]c2ccccc12)NC(=O)[C@@H](N)Cc1cc(I)c(O)c(I)c1)C(=O)O [compound 4] (H-[Tyr(3,5-I2)]W[Tyr(3,5-I2)]RGRL-OH)

Solubility of pure peptide [2]: insoluble
Compound: CC(C)C[C@H](NC(=O)[C@H](CCCCN)NC(=O)CNC(=O)[C@H](CCCCN)NC(=O)[C@H](Cc1ccc(O)cc1)NC(=O)[C@H](Cc1c[nH]c2ccccc12)NC(=O)COCCOCCNC(=O)[C@H](Cc1cc(I)c(O)c(I)c1)NC(=O)[C@@H](N)Cc1cc(I)c(O)c(I)c1)C(=O)O [compound 12] (H-[Tyr(3,5-I2)][Tyr(3,5-I2)][AEEA]WYKGKL-OH)

Solubility of pure peptide [2]: insoluble
Compound: CC(C)C[C@H](NC(=O)[C@H](CCCCN)NC(=O)CNC(=O)[C@H](CCCCN)NC(=O)[C@H](Cc1cc(I)c(O)c(I)c1)NC(=O)[C@@H](N)Cc1c[nH]c2ccccc12)C(=O)NCCOCCOCC(=O)N[C@@H](Cc1cc(I)c(O)c(I)c1)C(=O)NCC(=O)O [compound 14] (H-W[Tyr(3,5-I2)]KGKL[AEEA][Tyr(3,5-I2)]G-OH)

Compound: C[C@H](O)C(=O)Nc1c(I)c(C(=O)NC(CO)CO)c(I)c(C(=O)NC(CO)CO)c1I [iopamidol]
Thickness of cartilage assessed with the contrast agent [1]: 70 μm
X-ray absorption of background [1]: 875 ± 12 HU
X-ray absorption of cartilage [1]: 678 ± 29 HU
Difference in X-ray absorption between cartilage and background [1]: 0.8 fold

Compound: CC(C)C[C@H](NC(=O)[C@H](CCCCN)NC(=O)CNC(=O)[C@H](CCCCN)NC(=O)[C@H](Cc1cc(I)c(O)c(I)c1)NC(=O)[C@H](Cc1c[nH]c2ccccc12)NC(=O)[C@@H](N)Cc1cc(I)c(O)c(I)c1)C(=O)O [peptide 6] (H-[Tyr(3,5-I2)]W[Tyr(3,5-I2)]KGKL-OH)
Solubility of pure peptide [2]: insoluble in solution

Compound: Ac-WYRGRL-DOTAM-Cy5.5 [targeting peptide conjugated to a macrocyclic DOTAM scaffold with a Cy5.5 fluorophore]
Binding of probe to cartilage (Cy5.5 fluorescence histology) [3]: strong binding of the targeted probe to cartilage; also recorded: showed binding to cartilage

Compound: Ac-YRLGRW-DOTAM-Cy5.5 [scrambled control peptide-DOTAM-Cy5.5 probe]
Binding of probe to cartilage (Cy5.5 fluorescence histology) [3]: Only targeted probe (F) showed binding to cartilage
